Experiments:
[1] = system: MCF-7 (human mammary cancer); assay: MTT cytotoxicity assay, MCF-7; assay type: cell-based; details: Homo sapiens, MCF7, 72 h treatment, read-out: Half Maximal Inhibitory Concentration (IC50) MCF-7
Procedure: (§1) The cytotoxicity of hederagenin derivatives in vitro was evaluated on three tumor cell lines (A549: human non-small-cell lung cancer; MCF-7: human mammary cancer; HepG2: human hepatocellular carcinoma) using the 3-(4,5-dimethylthiazol-2-yl)-2,5-diphenyltetrazolium bromide (MTT) assay. In addition, their toxicity evaluations were tested on H9c2 (murine heart myoblast) and MDCK (Madin–Darby canine kidney) cells. MCF-7, A549, HepG2, H9c2, and MDCK cells were obtained from the Chinese Academy of Medical Sciences and Peking Union Medical College. All of the cell lines were maintained in Dulbecco’s modified Eagle medium (DMEM) supplemented with 1% (v/v) penicillin/streptomycin and 10% (v/v) fetal bovine serum (FBS; Thermo Technologies, New York, NY, USA) under a humidified atmosphere containing 5% CO2 at 37 °C. The stock solutions of He derivatives were dissolved in dimethyl sulfoxide (DMSO; Sigma, St. Louis, MO, USA) and added at various concentrations to the cell culture. Cellular morphologies were observed using an inverted fluorescence microscope (Olympus IX71, Tokyo, Japan), a plate reader (BIORAD 550 spectrophotometer, Bio-rad Life Science Development Ltd., Beijing, China), and a Canton 2 flow cytometer (BD, New York, NY, USA). The antitumor activity of these compounds were evaluated on MCF-7, A549, HepG2, MDCK, and H9c2 cell lines using the MTT assay. Cells at a density of 3 × 10^3 cells/well were plated in a 96-multiwell plate in DMEM containing 10% FBS for 24 h at 37 °C with 5% CO2. Then, cells were treated for 72 h with the required concentrations (3.125, 6.25, 12.5, 25, or 50 μM) of the compounds and reference drugs (He and DDP) dissolved with the vehicle DMSO. After that, the culture substrate was replaced with 200 μL of DMEM containing 20 μL of MTT solution at 5 mg/mL and incubated for 4 h. The supernatant was removed and the dissolved formazans precipitated with 120 μL of DMSO. Wells without drugs were used as blanks. A plate reader was used to determine the absorbance at 490 nm. The above steps were repeated three times. The IC50 values were defined as the concentration of the compound which gave 50% growth inhibition, and they were calculated using Graph Pad Prism 5. The inhibition rate was calculated using the following formula, where OD is the optical density:% inhibition = 1 − (Sample group OD/Control group OD) × 100%. (1)

[2] = system: H9c2 (murine heart myoblast); assay: MTT toxicity evaluation, H9c2; assay type: cell-based; details: H9c2, 72 h treatment, non-tumor cells, read-out: Half Maximal Inhibitory Concentration (IC50) H9c2
Procedure: as §1

[3] = system: HepG2 (human hepatocellular carcinoma); assay: MTT cytotoxicity assay, HepG2; assay type: cell-based; details: for IC50: Homo sapiens, HepG2, MTT, 72 h treatment, read-out: Half Maximal Inhibitory Concentration (IC50) HepG2
Procedure: as §1

[4] = system: MDCK (Madin–Darby canine kidney) cells; assay: MTT toxicity evaluation, MDCK; assay type: cell-based; details: Canis lupus familiaris, MDCK, 72 h treatment, non-tumor cells, read-out: Half Maximal Inhibitory Concentration (IC50) MDCK
Procedure: as §1

[5] = system: A549 (human non-small-cell lung cancer); assay: MTT cytotoxicity assay, A549; assay type: cell-based; details: Homo sapiens, A549, 72 h treatment, read-out: Half Maximal Inhibitory Concentration (IC50) A549
Procedure: as §1

melting point [°C]	SMILES	IC50 [1] [µM]	IC50 [2] [µM]	IC50 [3] [µM]	IC50 [4] [µM]	IC50 [5] [µM]	selective inhibition (SI = IC50 MCF-7/IC50 HepG2) ([3]; ratio of IC50 MCF-7 to IC50 HepG2)
134.7	Cc1ncc(C(=O)OCCCCOC(=O)[C@]23CCC(C)(C)CC2C2=CCC4[C@@]5(C)CC[C@H](O)[C@@](C)(CO)C5CC[C@@]4(C)[C@]2(C)CC3)nc1C (stereo partly drawn) [Compound 18, 4-(((4aS,6aS,6bR,9R,10S,12aR)-10-Hydroxy-9-(hydroxymethyl)-2,2,6a,6b,9,12a-hexamethyl-1,2,3,4,4a,5,6,6a,6b,7,8,8a,9,10,11,12,12a,12b,13,14b-icosahydropicene-4a-carbonyl)oxy)butyl-5,6-dimethylpyrazine-2-carboxylate]	28.3 ± 0.41	> 30	11.9 ± 0.99	16.6 ± 0.22	16.17 ± 0.15	–
110.1	Cc1nc(C)c(C(=O)OCCCCOC(=O)[C@]23CCC(C)(C)CC2C2=CCC4[C@@]5(C)CC[C@H](O)[C@@](C)(CO)C5CC[C@@]4(C)[C@]2(C)CC3)nc1C (stereo partly drawn) [Compound 19, 4-(((4aS,6aS,6bR,9R,10S,12aR)-10-Hydroxy-9-(hydroxymethyl)-2,2,6a,6b,9,12a-hexamethyl-1,2,3,4,4a,5,6,6a,6b,7,8,8a,9,10,11,12,12a,12b,13,14b-icosahydropicene-4a-carbonyl)oxy)butyl-3,5,6-trimethylpyrazine-2-carboxylate]	27.6 ± 0.52	16.5 ± 0.22	9.06 ± 0.32	16.43 ± 0.04	12.2 ± 0.4	–
166.1	Cc1cnc(C(=O)OCCCCOC(=O)[C@]23CCC(C)(C)CC2C2=CCC4[C@@]5(C)CC[C@H](O)[C@@](C)(CO)C5CC[C@@]4(C)[C@]2(C)CC3)cn1 (stereo partly drawn) [Compound 16, 4-(((4aS,6aS,6bR,9R,10S,12aR)-10-Hydroxy-9-(hydroxymethyl)-2,2,6a,6b,9,12a-hexamethyl-1,2,3,4,4a,5,6,6a,6b,7,8,8a,9,10,11,12,12a,12b,13,14b-icosahydropicene-4a-carbonyl)oxy)butyl-5-methylpyrazine-2-carboxylate]	28.49 ± 0.28	14.99 ± 0.12	6.99 ± 0.63	20.12 ± 0.06	24.8 ± 0.66	–
127	CC1(C)CC[C@]2(C(=O)OCCCCOC(=O)c3cnccn3)CC[C@]3(C)C(=CCC4[C@@]5(C)CC[C@H](O)[C@@](C)(CO)C5CC[C@]43C)C2C1 (stereo partly drawn) [Compound 14, 4-(((4aS,6aS,6bR,9R,10S,12aR)-10-Gydroxy-9-(hydroxymethyl)-2,2,6a,6b,9,12a-hexamethyl-1,2,3,4,4a,5,6,6a,6b,7,8,8a,9,10,11,12,12a,12b,13,14b-icosahydropicene-4a-carbonyl)oxy)butyl-pyrazine-2-carboxylate]	31.23 ± 0.15	15.9 ± 0.22	7.05 ± 0.17	18.1 ± 0.12	17.6 ± 2.33	4.43

Continued, compound first:

SMILES	melting point [°C]	IC50 [1] [µM]	IC50 [2] [µM]	IC50 [3] [µM]	IC50 [4] [µM]	IC50 [5] [µM]	selective inhibition (SI = IC50 MCF-7/IC50 HepG2) ([3]; ratio of IC50 MCF-7 to IC50 HepG2)
Cc1ncc(C(=O)OCCOC(=O)[C@]23CCC(C)(C)CC2C2=CCC4[C@@]5(C)CC[C@H](O)[C@@](C)(CO)C5CC[C@@]4(C)[C@]2(C)CC3)nc1C (stereo partly drawn) [Compound 12, 2-(((4aS,6aS,6bR,9R,10S,12aR)-10-Hydroxy-9-(hydroxymethyl)-2,2,6a,6b,9,12a-hexamethyl-1,2,3,4,4a,5,6,6a,6b,7,8,8a,9,10,11,12,12a,12b,13,14b-icosahydropicene-4a-carbonyl)oxy)ethyl-5,6-dimethylpyrazine-2-carboxylate]	146.2	17.3 ± 0.58	13.2 ± 0.2	14.42 ± 0.03	18.6 ± 0.71	10.1 ± 2.47	–
Cc1cnc(C(=O)OC[C@@]2(C)C3CC[C@]4(C)C(CC=C5C6CC(C)(C)CC[C@]6(C(=O)OCCCCCl)CC[C@]54C)[C@@]3(C)CC[C@@H]2O)cn1 (stereo partly drawn) [Compound 23, ((3S,4R,6aR,6bS,8aS,14bR)-8a-((4-Chlorobutoxy)carbonyl)-3-hydroxy-4,6a,6b,11,11,14b-hexamethyl-1,2,3,4,4a,5,6,6a,6b,7,8,8a,9,10,11,12,12a,14,14a,14b-icosahydropicen-4-yl)methyl 5-methylpyrazine-2-carboxylate]	175.8	21.3 ± 1.28	23.4 ± 0.55	7.17 ± 1.09	19.5 ± 2.47	18.7 ± 0.32	–
Cc1nc(C)c(COC(=O)[C@]23CCC(C)(C)CC2C2=CCC4[C@@]5(C)CC[C@H](O)[C@@](C)(CO)C5CC[C@@]4(C)[C@]2(C)CC3)nc1C (stereo partly drawn) [Compound 6, (3,5,6-Trimethylpyrazin-2-yl)methyl(4aS,6aS,6bR,9R,10S,12aR)-10-hydroxy-9-(hydroxymethyl)-2,2,6a,6b,9,12a-hexamethyl-1,3,4,5,6,6a,6b,7,8,8a,9,10,11,12,12a,12b,13,14b-octadecahydropicene-4a(2H)-carboxylate]	127.8	> 30	> 30	> 30	24.1 ± 0.76	25.5 ± 0.26	–
CC1(C)CC[C@]2(C(=O)OCCOC(=O)c3cnccn3)CC[C@]3(C)C(=CCC4[C@@]5(C)CC[C@H](O)[C@@](C)(CO)C5CC[C@]43C)C2C1 (stereo partly drawn) [Compound 8, 2-(((4aS,6aS,6bR,9R,10S,12aR)-10-Hydroxy-9-(hydroxymethyl)-2,2,6a,6b,9,12a-hexamethyl-1,2,3,4,4a,5,6,6a,6b,7,8,8a,9,10,11,12,12a,12b,13,14b-icosahydropicene-4a-carbonyl)oxy)ethylpyrazine-2-carboxylate]	154.7	25.35 ± 0.09	21.7 ± 0.86	17.4 ± 0.75	20.1 ± 0.3	23.9 ± 0.31	–
Cc1cnc(C(=O)OCCOC(=O)[C@]23CCC(C)(C)CC2C2=CCC4[C@@]5(C)CC[C@H](O)[C@@](C)(CO)C5CC[C@@]4(C)[C@]2(C)CC3)cn1 (stereo partly drawn) [Compound 10, 2-(((4aS,6aS,6bR,9R,10S,12aR)-10-Hydroxy-9-(hydroxymethyl)-2,2,6a,6b,9,12a-hexamethyl-1,2,3,4,4a,5,6,6a,6b,7,8,8a,9,10,11,12,12a,12b,13,14b-icosahydropicene-4a-carbonyl)oxy)ethyl-5-methylpyrazine-2-carboxylate]	192.6	27.2 ± 2.09	19.6 ± 3.29	28.17 ± 0.21	25.4 ± 0.28	20.9 ± 0.68	–
Cc1cnc(COC(=O)[C@]23CCC(C)(C)CC2C2=CCC4[C@@]5(C)CC[C@H](O)[C@@](C)(CO)C5CC[C@@]4(C)[C@]2(C)CC3)cn1 (stereo partly drawn) [Compound 3, (5-Methylpyrazin-2-yl)methyl(4aS,6aS,6bR,9R,10S,12aR)-10-hydroxy-9-(hydroxymethyl)-2,2,6a,6b,9,12a-hexamethyl-1,3,4,5,6,6a,6b,7,8,8a,9,10,11,12,12a,12b,13,14b-octadecahydropicene-4a(2H)-carboxylate]	170.3	16.8 ± 9.25	> 30	18.9 ± 0.35	18.4 ± 3.76	15 ± 0.35	–
Cc1ncc(COC(=O)[C@]23CCC(C)(C)CC2C2=CCC4[C@@]5(C)CC[C@H](O)[C@@](C)(CO)C5CC[C@@]4(C)[C@]2(C)CC3)nc1C (stereo partly drawn) [Compound 5, (5,6-Dimethylpyrazin-2-yl)methyl(4aS,6aS,6bR,9R,10S,12aR)-10-hydroxy-9-(hydroxymethyl)-2,2,6a,6b,9,12a-hexamethyl-1,3,4,5,6,6a,6b,7,8,8a,9,10,11,12,12a,12b,13,14b-octadecahydropicene-4a(2H)-carboxylate]	> 200	> 30	28.5 ± 0.29	24.94 ± 0.06	23.5 ± 0.67	24.4 ± 0.37	–
Cc1cncc(C(=O)OC[C@@]2(C)C3CC[C@]4(C)C(CC=C5C6CC(C)(C)CC[C@]6(C(=O)OCCCCCl)CC[C@]54C)[C@@]3(C)CC[C@@H]2O)n1 (stereo partly drawn) [Compound 22, ((3S,4R,6aR,6bS,8aS,14bR)-8a-((4-Chlorobutoxy)carbonyl)-3-hydroxy-4,6a,6b,11,11,14b-hexamethyl-1,2,3,4,4a,5,6,6a,6b,7,8,8a,9,10,11,12,12a,14,14a,14b-icosahydropicen-4-yl)methyl 6-methylpyrazine-2-carboxylate]	126.9	20.5 ± 3.63	16.26 ± 0.07	7.15 ± 0.43	16.3 ± 1.57	10.4 ± 0.43	–

Source: paper PMC6213900, “Design, Synthesis, and Cytotoxic Analysis of Novel Hederagenin–Pyrazine Derivatives Based on Partial Least Squares Discriminant Analysis” (International Journal of Molecular Sciences, 2018)
